Patent US20220227785A1, “NOVEL PHENYL AND PYRIDYL UREAS ACTIVE AGAINST THE HEPATITIS B VIRUS (HBV)” (AICURIS GMBH & CO. KG, priority 2019, published 2022)

These compounds were tested on HBV in HepAD38 cells. Conditions: Hepatitis B virus, HePAD38, 144 h, read-out: Cell activity.

Compound	EC50
CN(C(=O)c1cnn2c1CN(C(=O)Nc1ccc(F)c(Cl)c1)CC2)C1(c2cccc(C(=O)O)c2)CC1 [Example 1, 3-(1-{N-methyl-5-[(3-chloro-4-fluorophenyl)carbamoyl]-4H,5H,6H,7H-pyrazolo[1,5-a]pyrazine-3-amido}cyclopropyl)benzoic acid]	< 1 µM
CN(C(=O)c1cnn2c1CN(C(=O)Nc1ccc(F)c(Cl)c1)CC2)C1(c2ccc(C(=O)O)cc2)CC1 [Example 2, 4-(1-{N-methyl-5-[(3-chloro-4-fluorophenyl)carbamoyl]-4H,5H,6H,7H-pyrazolo[1,5-a]pyrazine-3-amido}cyclopropyl)benzoic acid]	< 1 µM
COCC1(N(C)C(=O)c2noc3c2CN(C(=O)Nc2ccc(F)c(Cl)c2)CC3)CC1 [Example 3, N5-(3-chloro-4-fluorophenyl)-N3-[1-(methoxymethyl)cyclopropyl]-N3-methyl-4H,5H,6H,7H-[1,2]oxazolo[4,5-c]pyridine-3,5-dicarboxamide]	< 1 µM
CN1C(=O)c2c3c(nn2CC12CC2)CCN(C(=O)Nc1ccc(F)c(Cl)c1)C3 [Example 4, N-(3-chloro-4-fluorophenyl)-4′-methyl-3′-oxo-4′,7′,8′,12′-tetraazaspiro[cyclopropane-1,5′-tricyclo[7.4.0.0^2,7]tridecane]-1′,8′-diene-12′-carboxamide]	< 1 µM
O=C(O)c1cnc(C2(NC(=O)c3cnn4c3CN(C(=O)Nc3ccc(F)c(Cl)c3)CC4)CC2)nc1 [Example 5, 2-(1-{5-[(3-chloro-4-fluorophenyl)carbamoyl]-4H,5H,6H,7H-pyrazolo[1,5-a]pyrazine-3-amido}cyclopropyl)pyrimidine-5-carboxylic acid]	< 1 µM
O=C(O)c1ccc(C2(NC(=O)c3cnn4c3CN(C(=O)Nc3ccc(F)c(Cl)c3)CC4)CC2)nc1 [Example 6, 6-(1-{5-[(3-chloro-4-fluorophenyl)carbamoyl]-4H,5H,6H,7H-pyrazolo[1,5-a]pyrazine-3-amido}cyclopropyl)pyridine-3-carboxylic acid]	< 1 µM
C[C@@H](NC(=O)c1noc2c1CN(C(=O)Nc1ccc(F)c(Cl)c1)CC2)C(F)(F)F [Example 8, N5-(3-chloro-4-fluorophenyl)-N3-[(2R)-1,1,1-trifluoropropan-2-yl]-4H,5H,6H,7H-[1,2]oxazolo[4,5-c]pyridine-3,5-dicarboxamide]	< 1 µM
CC1Cn2ncc(C(=O)N(C)C3(c4ccc(C(=O)O)cc4)CC3)c2CN1C(=O)Nc1ccc(F)c(Cl)c1 (centres unmarked) [Example 9, 4-(1-{N-methyl-5-[(3-chloro-4-fluorophenyl)carbamoyl]-6-methyl-4H,5H,6H,7H-pyrazolo[1,5-a]pyrazine-3-amido}cyclopropyl)benzoic acid]	< 1 µM
CN1C(=O)c2c3c(nn2CC12CC2)CCN(C(=O)Nc1ccc(F)c(F)c1)C3 [Example 10, N-(3,4-difluorophenyl)-4′-methyl-3′-oxo-4′,7′,8′,12′-tetraazaspiro[cyclopropane-1,5′-tricyclo[7.4.0.0^2,^7]tridecane]-1′,8′-diene-12′-carboxamide]	< 1 µM
CN1C(=O)c2c3c(nn2CCC12CC2)CCN(C(=O)Nc1ccc(F)c(Cl)c1)C3 [Example 11, N-(3-chloro-4-fluorophenyl)-13′-methyl-14′-oxo-4′,8′,9′,13′-tetraazaspiro[cyclopropane-1,12′-tricyclo[7.5.0.0^2,^7]tetradecane]-1′,7′-diene-4′-carboxamide]	< 1 µM
CN(C(=O)c1[nH]nc2c1CN(C(=O)Nc1ccc(F)c(Cl)c1)CC2)C1(c2ncc(C(=O)O)cn2)CC1 [Example 12, 2-(1-{N-methyl-5-[(3-chloro-4-fluorophenyl)carbamoyl]-2H,4H,5H,6H,7H-pyrazolo[4,3-c]pyridine-3-amido}cyclopropyl)pyrimidine-5-carboxylic acid]	1 to 10 µM
CN(C(=O)c1[nH]nc2c1CN(C(=O)Nc1ccc(F)c(Cl)c1)CC2)C1(c2ccc(C(=O)O)cc2)CC1 [Example 13, 4-(1-{N-methyl-5-[(3-chloro-4-fluorophenyl)carbamoyl]-2H,4H,5H,6H,7H-pyrazolo[4,3-c]pyridine-3-amido}cyclopropyl)benzoic acid]	< 100 µM
CC1Cn2cnc(C(=O)N(C)C3(c4cccc(C(=O)O)c4)CC3)c2CN1C(=O)Nc1ccc(F)c(Cl)c1 (centres unmarked) [Example 14, 3-(1-{N-methyl7-[(3-chloro-4-fluorophenyl)carbamoyl]-6-methyl-5H,6H,7H,8H-imidazo[1,5-a]pyrazine-1-amido}cyclopropyl)benzoic acid]	< 1 µM
CN(C(=O)c1cnn2c1CN(C(=O)Nc1ccc(F)c(Cl)c1)CC2)C1(c2nccc(C(=O)O)n2)CC1 [Example 15, 2-(1-{N-methyl-5-[(3-chloro-4-fluorophenyl)carbamoyl]-4H,5H,6H,7H-pyrazolo[1,5-a]pyrazine-3-amido}cyclopropyl)pyrimidine-4-carboxylic acid]	1 to 10 µM
CN(C(=O)c1cnn2c1CN(C(=O)Nc1ccc(F)c(Cl)c1)CC2)C1(Cc2ccc(C(=O)O)cc2)CC1 [Example 16, 4-[(1-{N-methyl-5-[(3-chloro-4-fluorophenyl)carbamoyl]-4H,5H,6H,7H-pyrazolo[1,5-a]pyrazine-3-amido}cyclopropyl)methyl]benzoic acid]	< 1 µM
O=C(O)c1ccc(C2(NC(=O)c3cnn4c3CN(C(=O)Nc3ccc(F)c(Cl)c3)CC4)CC2)cc1 [Example 17, 4-(1-{5-[(3-chloro-4-fluorophenyl)carbamoyl]-4H,5H,6H,7H-pyrazolo[1,5-a]pyrazine-3-amido}cyclopropyl)benzoic acid]	< 100 µM
O=C(O)c1cccc(C2(NC(=O)c3cnn4c3CN(C(=O)Nc3ccc(F)c(Cl)c3)CC4)CC2)c1 [Example 18, 3-(1-{5-[(3-chloro-4-fluorophenyl)carbamoyl]-4H,5H,6H,7H-pyrazolo[1,5-a]pyrazine-3-amido}cyclopropyl)benzoic acid]	1 to 10 µM
CN(C(=O)c1cnn2c1CN(C(=O)Nc1ccc(F)c(Cl)c1)CC2)C1(c2cc(C(=O)O)on2)CC1 [Example 27, 3-(1-{N-methyl-5-[(3-chloro-4-fluorophenyl)carbamoyl]-4H,5H,6H,7H-pyrazolo[1,5-a]pyrazine-3-amido}cyclopropyl)-1,2-oxazole-5-carboxylic acid #]	< 1 µM
CCN1C(=O)c2c3c(nn2CCC12CC2)CCN(C(=O)Nc1ccc(F)c(Cl)c1)C3 [Example 28, N-(3-chloro-4-fluorophenyl)-13′-ethyl-14′-oxo-4′,8′,9′,13′-tetraazaspiro[cyclopropane-1,12′-tricyclo[7.5.0.0^2,^7]tetradecane]-1′,7′-diene-4′-carboxamide]	< 1 µM
CN(C(=O)c1cnn2c1CN(C(=O)Nc1ccc(F)c(Cl)c1)CC2)C1(c2ccccc2C(=O)O)CC1 [Example 29, 2-(1-{N-methyl-5-[(3-chloro-4-fluorophenyl)carbamoyl]-4H,5H,6H,7H-pyrazolo[1,5-a]pyrazine-3-amido}cyclopropyl)benzoic acid]	< 1 µM
